The values that follow are results of earlier work, collected in patent US20110105450A1, “OPHTHALMIC FORMULATIONS OF FLUTICASONE AND METHODS OF USE” (Aciex Therapeutics, Inc., priority 2009, published 2011).

SMILES strings stand for the structures. Converted amounts (≈) assume the structure as drawn.

`CCC(=O)O[C@]1(C(=O)SCF)[C@H](C)C[C@H]2[C@@H]3C[C@H](F)C4=CC(=O)C=C[C@]4(C)[C@@]3(F)[C@@H](O)C[C@@]21C` [Fluticasone propionate, S-fluoromethyl-6-α-9-difluoro-11-β-hydroxy-16-α-methyl-3-oxoandrosta-1,4-diene-17-β-carbothioate, 17-propionate]: for the setting “95% ethanol”, the “solubility in 95% ethanol” value is listed as “slightly soluble”. Besides, under “dimethyl sulfoxide”, the “solubility in dimethyl sulfoxide” value is recorded as “freely soluble”. For the same compound, the solubility in dimethyl-formamide result (dimethyl-formamide) is reported as “freely soluble”. Also, the solubility in methanol result (methanol) is “slightly soluble”. In addition, the solubility in water (water) was 0.14 µg/mL (≈ 0.28 µM).
